The assay has as its target NACHT, LRR and PYD domains-containing protein 3 (Homo sapiens, UniProt Q96P20). In words: THP-1 Cells Pyroptosis Assay. Here is the method: 1. Seed THP-1 cells (25,000 cells/well) containing 1.0 μg/ml LPS in 40μ of RPMI medium (without FBS) in 96-well, black walled, clear bottom cell culture plates coated with poly-D-lysine (VWR #734-0317)2. Add 5 μl compound (8 points half-log dilution, with […]) or vehicle (DMSO 0.1% FAC) to the appropriate wells3. Incubate for 3 hrs at 37° C. and 5% CO24. Add 5 μl nigericin (Sigma #N7143) (FAC 5 μM) to all wells5. Incubate for 1 hr at 37° C. and 5% CO26. At the end of the incubation period, spin plates at 300×g for 3 mins and remove supernatant7. Then add 50 μl of resazurin (Sigma #R7017) (FAC 100 μM resazurin in RPMI medium without FBS) and incubate plates for a further 1-2 hrs at 37° C. and 5% CO28. Plates were read in an Envision reader at Ex 560 nm and Em 590 nm9. IC50 data is fitted to a non-linear regression equation (log inhibitor vs response-variable slope 4-parameters)

Chain of NACHT, LRR and PYD domains-containing protein 3 (Q96P20 whole entry, the tested form may be a part): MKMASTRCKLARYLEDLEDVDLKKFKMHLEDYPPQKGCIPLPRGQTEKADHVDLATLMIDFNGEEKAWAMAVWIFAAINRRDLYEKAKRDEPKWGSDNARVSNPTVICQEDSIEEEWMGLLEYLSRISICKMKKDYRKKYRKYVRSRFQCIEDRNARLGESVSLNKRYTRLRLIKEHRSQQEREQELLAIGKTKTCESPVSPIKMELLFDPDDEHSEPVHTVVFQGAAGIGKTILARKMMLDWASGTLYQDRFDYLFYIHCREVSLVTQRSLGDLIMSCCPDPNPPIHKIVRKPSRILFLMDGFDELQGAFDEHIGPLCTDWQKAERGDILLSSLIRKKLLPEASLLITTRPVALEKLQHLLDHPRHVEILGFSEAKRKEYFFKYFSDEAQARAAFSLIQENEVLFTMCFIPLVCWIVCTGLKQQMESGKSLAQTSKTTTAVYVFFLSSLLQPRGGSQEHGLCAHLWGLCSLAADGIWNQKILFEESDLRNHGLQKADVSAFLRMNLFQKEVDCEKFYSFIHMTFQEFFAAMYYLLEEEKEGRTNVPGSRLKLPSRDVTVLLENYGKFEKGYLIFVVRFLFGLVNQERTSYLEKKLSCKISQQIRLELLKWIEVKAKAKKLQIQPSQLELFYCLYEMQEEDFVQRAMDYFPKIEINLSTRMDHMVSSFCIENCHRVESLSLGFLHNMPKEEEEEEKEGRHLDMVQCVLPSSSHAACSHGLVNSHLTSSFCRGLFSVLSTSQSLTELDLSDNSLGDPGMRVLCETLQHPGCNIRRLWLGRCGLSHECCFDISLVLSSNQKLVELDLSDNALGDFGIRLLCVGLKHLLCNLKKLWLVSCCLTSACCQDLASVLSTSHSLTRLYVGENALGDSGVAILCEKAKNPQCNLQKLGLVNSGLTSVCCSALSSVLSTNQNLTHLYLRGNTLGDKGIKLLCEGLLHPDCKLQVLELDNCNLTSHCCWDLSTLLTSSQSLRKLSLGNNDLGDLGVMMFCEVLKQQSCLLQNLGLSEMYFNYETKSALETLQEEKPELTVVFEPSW

The compound `N=C(N)N1CC(S(=O)(=O)NC(=O)Nc2c3c(cc4c2CCC4)CCC3)C1` [US20250115591, Example 113] returned an IC50 of less than 1 µM.

`C=CCN1CC(S(=O)(=O)NC(=O)Nc2c3c(cc4c2CCC4)CCC3)C1` [US20250115591, Example 132] had an IC50 of less than 1 µM.

`CC(C)(C)OC(=O)N1CC(N2CC(S(=O)(=O)NC(=O)Nc3c4c(cc5c3CCC5)CCC4)C2)C1` [US20250115591, Example 106] came in with an IC50 of less than 10 µM.

The compound `CN(C)C(=O)CN1CC(S(=O)(=O)NC(=O)Nc2c3c(cc4c2CCC4)CCC3)C1` [US20250115591, Example 21] yielded an IC50 of less than 10 µM.

On to `CC(C)(C)N1CC(S(=O)(=O)NC(=O)Nc2c3c(cc4c2CCC4)CCC3)C1` [US20250115591, Example 93], for which the IC50 is less than 1 µM.

As to `CC(=O)N1CCCC(S(=O)(=O)NC(=O)Nc2c3c(cc4c2CCC4)CCC3)C1` (stereo unspecified) [US20250115591, Example 56], the IC50 is less than 10 µM.

In turn, `CCCCCCn1cc(S(=O)(=O)NC(=O)Nc2c3c(cc4c2CCC4)CCC3)c(=O)[nH]c1=O` [US20250115591, Example 17] displayed an IC50 of less than 10 µM.

In the case of `Cn1cc(S(=O)(=O)NC(=O)Nc2c3c(cc4c2CCC4)CCC3)c(=O)n(C)c1=O` [US20250115591, Example 16], the IC50 is less than 10 µM.

In the case of `O=C(Nc1c2c(cc3c1CCC3)CCC2)NS(=O)(=O)C1CN(C2CCC2)C1` [US20250115591, Example 18], the IC50 is less than 1 µM.

In turn, `CCC(C)N1CC(S(=O)(=O)NC(=O)Nc2c(C(C)C)cc(Cl)cc2C(C)C)C1` (stereo unspecified) [US20250115591, Example 187] returned an IC50 of less than 10 µM.

Turning to `CC(C)NC(=O)N1CCCC(S(=O)(=O)NC(=O)Nc2c3c(cc4c2CCC4)CCC3)C1` (stereo unspecified) [US20250115591, Example 33], the IC50 is less than 10 µM.

Compound `O=C(Nc1c2c(cc3c1CCC3)CCC2)NS(=O)(=O)C1CNC1` [US20250115591, Example 42] yielded an IC50 of less than 10 µM.

Turning to `N#CCN1CC(S(=O)(=O)NC(=O)Nc2c3c(cc4c2CCC4)CCC3)C1` [US20250115591, Example 87], the IC50 was less than 10 µM.

`CCC(C)N1CCC(S(=O)(=O)NC(=O)Nc2c3c(cc4c2CCC4)CCC3)C1` (stereo unspecified) [US20250115591, Example 82]: the IC50 was less than 10 µM.

On to `CC(=O)N1CCC(S(=O)(=O)NC(=O)Nc2c3c(cc4c2CCC4)CCC3)CC1` [US20250115591, Example 3], for which the IC50 is less than 10 µM.

As to `CCN1[C@@H]2CC[C@H]1C[C@H](S(=O)(=O)NC(=O)Nc1c3c(cc4c1CCC4)CCC3)C2` [US20250115591, Example 70], the IC50 is less than 1 µM.

`O=C(Nc1c2c(cc3c1CCC3)CCC2)NS(=O)(=O)C1CCNC1` (stereo unspecified) [US20250115591, Example 55] came in with an IC50 of less than 10 µM.

`CCN1CCCC(S(=O)(=O)NC(=O)Nc2c3c(cc4c2CCC4)CCC3)CC1` (stereo unspecified) [US20250115591, Example 194] registered an IC50 of less than 1 µM.

Turning to `CCNC(=O)N1CCC(S(=O)(=O)NC(=O)Nc2c3c(cc4c2CCC4)CCC3)CC1` [US20250115591, Example 26], the IC50 is less than 10 µM.

In turn, `CC(=O)N1CCC(S(=O)(=O)NC(=O)Nc2c3c(cc4c2CCC4)CCC3)C1` (stereo unspecified) [US20250115591, Example 38] displayed an IC50 of less than 10 µM.

Compound `CCN1[C@@H]2CC[C@H]1C[C@@H](S(=O)(=O)NC(=O)Nc1c3c(cc4c1CCC4)CCC3)C2` [US20250115591, Example 52] showed a 50% inhibitory concentration (IC50) of less than 10 µM.

On to `CCCCN1CC(S(=O)(=O)NC(=O)Nc2c3c(cc4c2CCC4)CCC3)C1` [US20250115591, Example 83], for which the IC50 was less than 10 µM.

On to `CN1CC(N2[C@@H]3CC[C@H]2C[C@@H](S(=O)(=O)NC(=O)Nc2c4c(cc5c2CCC5)CCC4)C3)C1` [US20250115591, Example 146], for which the IC50 is less than 10 µM.

Turning to `O=C(Nc1c2c(cc3c1CCC3)CCC2)NS(=O)(=O)C1CN(C2CC2)C1` [US20250115591, Example 85], the IC50 is less than 1 µM.

`CC(=O)N1CC(S(=O)(=O)NC(=O)Nc2c3c(cc4c2CCC4)CCC3)C1` [US20250115591, Example 74] showed an IC50 of less than 10 µM.

In turn, `COc1cc(-c2ccc3c(c2NC(=O)NS(=O)(=O)c2cn(C(C)C)c(=O)cn2)CCC3)ccn1` [US20250115591, Example 156] came in with an IC50 of less than 1 µM.

`CC(C)N1CC(S(=O)(=O)NC(=O)Nc2c3c(cc4c2CCC4)CCC3)CC1C(=O)N(C)C` (stereo unspecified) [US20250115591, Example 148] returned an IC50 of less than 10 µM.

`O=C(Nc1c2c(cc3c1CCC3)CCC2)NS(=O)(=O)C1CN(C2CNC2)C1` [US20250115591, Example 114] gave an IC50 of less than 10 µM.

The compound `CNC(=O)N1CCC(S(=O)(=O)NC(=O)Nc2c3c(cc4c2CCC4)CCC3)CC1` [US20250115591, Example 28] had an IC50 of less than 10 µM.

For the compound `CNC(=N)N1CC(S(=O)(=O)NC(=O)Nc2c3c(cc4c2CCC4)CCC3)C1` [US20250115591, Example 129], the IC50 is less than 10 µM.

`CN(C(=O)OC(C)(C)C)/C(=N\C(=O)OC(C)(C)C)N1CC(S(=O)(=O)NC(=O)Nc2c3c(cc4c2CCC4)CCC3)C1` [US20250115591, Example 127] registered an IC50 of less than 10 µM.

Take `O=C(Nc1c2c(cc3c1CCC3)CCC2)NS(=O)(=O)C1CN(C2CCCC2)C1` [US20250115591, Example 99]: the IC50 is less than 1 µM.

On to `CCC(C)N1CC(S(=O)(=O)NC(=O)Nc2c(C(C)C)cc(F)cc2C(C)C)C1` (stereo unspecified) [US20250115591, Example 143], for which the IC50 was less than 10 µM.

`CC(C)N1[C@@H]2CC[C@H]1C[C@H](S(=O)(=O)NC(=O)Nc1c3c(cc4c1CCC4)CCC3)C2` [US20250115591, Example 69] yielded an IC50 of less than 1 µM.

`CC(C)N1[C@@H]2CC[C@H]1C[C@@H](S(=O)(=O)NC(=O)Nc1c3c(cc4c1CCC4)CCC3)C2` [US20250115591, Example 45] showed an IC50 of less than 1 µM.

In the case of `CC(C)(C)OC(=O)/N=C(/NC(=O)OC(C)(C)C)N1CC(S(=O)(=O)NC(=O)Nc2c3c(cc4c2CCC4)CCC3)C1` [US20250115591, Example 112], the IC50 is less than 10 µM.

Regarding `CCNC(=O)N1CCC(S(=O)(=O)NC(=O)Nc2c3c(cc4c2CCC4)CCC3)C1` (stereo unspecified) [US20250115591, Example 30], the IC50 was less than 10 µM.

In turn, `O=C(Nc1c2c(cc3c1CCC3)CCC2)NS(=O)(=O)C1CN(C2CCCCC2)C1` [US20250115591, Example 98] returned an IC50 of less than 1 µM.

Regarding `C[C@@H](O)Cn1cc(S(=O)(=O)NC(=O)Nc2c3c(cc4c2CCC4)CCC3)ccc1=O` [US20250115591, Example 183], the IC50 was less than 1 µM.

`CCN1CCC(S(=O)(=O)NC(=O)Nc2c3c(cc4c2CCC4)CCC3)C1` (stereo unspecified) [US20250115591, Example 37] yielded an IC50 of less than 1 µM.

The compound `COC(=O)CN1CC(S(=O)(=O)NC(=O)Nc2c3c(cc4c2CCC4)CCC3)C1` [US20250115591, Example 78] had an IC50 of less than 10 µM.

One may read the IC50 as the concentration needed to halve the response being measured.
